Assay results taken from patent publication US10457672B2, “γ-diketones as Wnt/β-catenin signaling pathway activators” (Samumed, LLC, priority 2013, dated 2019).

Each compound was assayed on Wnt/β-catenin signaling pathway (Wnt-responsive SP5 promoter luciferase reporter in SW480 cells) (assay: Wnt reporter (SP5 promoter-firefly luciferase) activation assay in SW480 cells). Conditions: Homo sapiens; SW480 colon cancer cells with SP5 promoter luciferase reporter; 24 h after compound addition; normalized to DMSO; concentration at half maximal activation.
Type: cell-based
In short: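 SW480 cells (APC-mutant) stably carrying an SP5-derived 8×TCF/LEF promoter–firefly luciferase reporter were treated with half-log compound dilutions from 3 or 10 µM top.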

| Compound | EC50 [nM] |
| --- | --- |
| O=C(CCC(=O)c1ccccc1C(F)(F)F)c1ccc2sccc2c1 [Compound 301, 1-(Benzo[b]thiophen-5-yl)-4-(2-(trifluoromethyl)phenyl)butane-1,4-dione] | 39 |
| O=C(CCC(=O)c1cccs1)c1ccc2c(c1)CCCO2 [Compound 364, 1-(Chroman-6-yl)-4-(thiophen-2-yl)butane-1,4-dione] | 13 |
| O=C(CCC(=O)c1c[nH]c2ccccc12)c1ccccc1C(F)(F)F [Compound 314, 1-(1H-Indol-3-yl)-4-(2-(trifluoromethyl)phenyl)butane-1,4-dione] | 16 |
| O=C(CCC(=O)c1c[nH]c2ccccc12)c1ccccc1 [Compound 325, 1-(1H-Indol-3-yl)-4-phenylbutane-1,4-dione] | 63 |
| COc1ccc(C(=O)CCC(=O)c2ccc(C)cc2)cc1OC [Compound 426, 1-(3,4-Dimethoxyphenyl)-4-(p-tolyl)butane-1,4-dione] | 8800 |
| O=C(CCC(=O)c1ccc2c(c1)OCCO2)c1cccc(C(F)(F)F)c1 [Compound 9, 1-(2,3-Dihydrobenzo[b][1,4]dioxin-6-yl)-4-(3-(trifluoromethyl)phenyl)butane-1,4-dione] | 100 |
| Cc1ccc(C(=O)CCC(=O)c2ccc3[nH]ncc3c2)cc1 [Compound 503, 1-(1H-Indazol-5-yl)-4-(p-tolyl)butane-1,4-dione] | 487 |
| O=C(CCC(=O)c1ccco1)c1ccc2c(c1)OCO2 [Compound 375, 1-(Benzo[d][1,3]dioxol-5-yl)-4-(furan-2-yl)butane-1,4-dione] | 71 |
| O=C(CCC(=O)c1ccco1)c1ccc2occc2c1 [Compound 462, 1-(Benzofuran-5-yl)-4-(furan-2-yl)butane-1,4-dione] | 424 |
| O=C(CCC(=O)c1cccc2c1OCCO2)c1cccc(F)c1 [Compound 240, 1-(2,3-Dihydrobenzo[b][1,4]dioxin-5-yl)-4-(3-fluorophenyl)butane-1,4-dione] | 669 |
| O=C(CCC(=O)c1ncccn1)c1ccc2c(c1)OCO2 [Compound 372, 1-(Benzo[d][1,3]dioxol-5-yl)-4-(pyrimidin-2-yl)butane-1,4-dione] | 97 |
| O=C(CCC(=O)c1ccco1)c1ccc2c(c1)OCCO2 [Compound 346, 1-(2,3-Dihydrobenzo[b][1,4]dioxin-6-yl)-4-(furan-2-yl)butane-1,4-dione] | 24 |
| O=C(CCC(=O)c1ccccc1F)c1ccc2ocnc2c1 [Compound 291, 1-(Benzo[d]oxazol-5-yl)-4-(2-fluorophenyl)butane-1,4-dione] | 125 |
| O=C(CCC(=O)c1ccc2[nH]ncc2c1)c1ccccc1 [Compound 513, 1-(1H-Indazol-5-yl)-4-phenylbutane-1,4-dione] | 39 |
| COc1ccc(C(=O)CCC(=O)c2cccnc2)cc1OC [Compound 208, 1-(3,4-Dimethoxyphenyl)-4-(pyridin-3-yl)butane-1,4-dione] | > 10000 |
| O=C(CCC(=O)c1n[nH]c2ccccc12)c1ccccc1 [Compound 338, 1-(1H-Indazol-3-yl)-4-phenylbutane-1,4-dione] | 64 |
| COc1ccccc1C(=O)CCC(=O)c1ccc2sccc2c1 [Compound 307, 1-(Benzo[b]thiophen-5-yl)-4-(2-methoxyphenyl)butane-1,4-dione] | 55 |
| COc1ccccc1C(=O)CCC(=O)c1ccc2c(c1)OCCC2 [Compound 61, 1-(Chroman-7-yl)-4-(2-methoxyphenyl)butane-1,4-dione] | 25 |
| COc1ccccc1C(=O)CCC(=O)c1cccc2c1OCCO2 [Compound 242, 1-(2,3-Dihydrobenzo[b][1,4]dioxin-5-yl)-4-(2-methoxyphenyl)butane-1,4-dione] | 789 |
| O=C(CCC(=O)c1ccccc1F)c1ccc2[nH]ccc2c1 [Compound 252, 1-(2-Fluorophenyl)-4-(1H-indol-5-yl)butane-1,4-dione] | 1 |
| Cc1cccc(C(=O)CCC(=O)c2n[nH]c3ccccc23)c1 [Compound 529, 1-(1H-Indazol-3-yl)-4-(m-tolyl)butane-1,4-dione] | 695 |
